Measured values from patent US7375122B2, “Compounds useful as pesticides” (Dow AgroSciences LLC, priority 2002, dated 2008).

Columns and labels:
Type in all cases: in vivo
[1] = test system: Cotton Aphid (Aphis gossypll); test: Testing with Cotton Aphid, track sprayer application on infested cotton plants; conditions: for LC90: cotton aphid on cotton plants, track sprayer approx. 200 L/ha, count of living non-winged aphids
Method: Alcala cotton plants were grown from seed in 7-cm pots under greenhouse conditions until they reached 35 to 40 cm in height; approximately four weeks old with 5 to 6 true leaves. The plants were then stripped of all foliage except for the two uppermost true leaves. Two days prior to application, heavily infested leaf sections from a cotton aphid colony were cut and placed on each untreated leaf surface. Over the two days, all stages of the aphids abandon the excised host material and migrate to the succulent growth, predominantly the lower surface of the leaves. Plants were checked prior to application for even infestation levels. Treatments consisted of 4 replicates (plants) each with 2 leaves per plant.
Formulation of technical compound was in a solvent solution. For the top rate of each compound, 20 milligrams of technical material was dissolved in 2 milliliters (ml) of a 9:1 mixture of acetone:ethanol solvent. Once dissolved, an additional 18-ml of the solvent mix was added to yield a 1 mg/ml spray solution. Additional rates were then prepared by serial dilution.
Application was made by an automated tracksprayer (RC-Insecticide #1, Serial MS-9′-002, MANDEL Scientific Company Ltd.) equipped with a single TX6 SS hollow cone nozzle to simulate an over-the-top application by a boom sprayer. Spray pressure was set at 50 PSI, and the nozzle head was set approximately 40 cm above the leaf surface (depending on the leaf position it ranged from 35-45 cm). Track velocity and all other settings were calibrated to deliver approximately 200 L/ha. After application and drying, the plants were transferred and kept in controlled environment until assessment.
Assessment of compound efficacy is evaluated by counting all living non-winged stage aphids infesting each replicate using a dissecting microscope.

[2] = test system: Sweetpotato Whitefly, Bemisia tabaci; test: Testing with Sweetpotato Whitefly, track sprayer application on egg-infested cotton plants; conditions: for LC90: sweetpotato whitefly on cotton plants, track sprayer, assessment at 13 days after application
Method: Greenhouse-grown cotton plants (ca. five weeks old, grown in 7×7 cm pots containing ca. 231 cm^3 of potting soil mixture) were prepared for whitefly infestation by removing all foliage except the first or second pair of fully expanded true leaves. These plants are then moved into the whitefly colony room of the insectary (temperature maintained at 27° C.), where they are surrounded by cotton or velvetleaf plants infested with all life stages of B. tabaci. Initial movement of B. tabaci adults onto the prepared cotton plants is encouraged by gently shaking the foliage of the surrounding infested cotton and velvetleaf foliage using a 1.5-meter long willow branch. The prepared plants are left in place within the whitefly colony, where they are exposed to adult female B. tabaci oviposition for ca. 48 hours.
At the end of the oviposition exposure period, adult whiteflies are dislodged from the prepared plants by passing compressed air just above the leaves while the leaves are gently disturbed by hand for ca. 15 seconds. The prepared plants, which are now infested with eggs of B. tabaci, are removed from the insectary and any remaining adults are removed from the foliage with a hand-held vacuum fitted with a cage to trap insects. Infested plants are then selected at random and arranged into treatment groups of two or three plants each. Leaves of plants to receive different treatments are separated by a distance of at least 5 cm.
Compounds are applied within 24 hours of removing cotton plants from exposure to oviposition within the B. tabaci colony. Immediately after application, plants are moved to a holding room with a temperature of 30° C. and relative humidity of ca. 60%. Compound efficacy was observed by an assessment at 13 days after application. At this evaluation time, whitefly nymphs that have successfully developed to the third and fourth nymphal stadia can be easily seen on the underside of each cotton leaf with the aid of an illuminated magnifying lens (equipped with a circular fluorescent tube). […]

[3] = test system: Cat Flea (Cntenocephalides felis); test: Testing with Cat Flea, treated media infested with eggs; conditions: eggs held five weeks, adult fleas counted
Method: Media is prepared by mixing 1 part dried bovine blood, 4 parts ground dog food pellets, and 95 parts clean sand. Compounds are dissolved in acetone and further diluted in acetone to yield the required range of concentrations. The acetone solutions are applied to measured amounts of media in small dishes. Final concentrations are expressed as micrograms of compound per gram of media. After the acetone has dried, the treated media is dispensed into small glass vials and infested with 5 to 10 cat flea (Cntenocephalides fells) eggs. The vials are loosely capped and held under controlled conditions for five weeks. Activity is assessed based on the average number of adult cat fleas present in the treated vials compared to the average number of adult cat fleas in the media

SMILES | LC90 [1] | LC90 [2] | control of cat fleas ([3]; 0.01 μg/g rate in media) | control of cat fleas ([3]; 0.1 μg/g rate in media) | times more Comparative Compound A needed to reach the LC90 level than Compound Three ([1]; cotton aphid, ratio of LC90 values) | times more Comparative Compound A needed to reach the LC90 level than Compound Three ([2]; sweetpotato whitefly, ratio of LC90 values)
O=C/C(=C1/NCCN1Cc1ccc(Cl)nc1)[N+](=O)[O-] [Compound Three] | less than 0.78 grams per hectare | less than 2.52 grams per hectare | 81% | 96% | – | –
CN/C(=C(/C=O)[N+](=O)[O-])N(C)Cc1ccc(Cl)nc1 [Compound One] | – | – | – | 100% | – | –
O=[N+]([O-])/C=C1\NCCN1Cc1ccc(Cl)nc1 [Comparative Compound A] | 9.1 grams per hectare | 6.66 grams per hectare | – | – | ~11.7 times | ~2.7 times
